Drawing on patent US8796289B2 (AbbVie Inc., priority 2011, dated 2014), this text covers Ki for 22 molecules.

A word on the Ki: it is a measure of affinity in units of concentration, obtained from inhibition or displacement.

Sequence of GST-tagged-Wee1 kinase (P30291 whole entry): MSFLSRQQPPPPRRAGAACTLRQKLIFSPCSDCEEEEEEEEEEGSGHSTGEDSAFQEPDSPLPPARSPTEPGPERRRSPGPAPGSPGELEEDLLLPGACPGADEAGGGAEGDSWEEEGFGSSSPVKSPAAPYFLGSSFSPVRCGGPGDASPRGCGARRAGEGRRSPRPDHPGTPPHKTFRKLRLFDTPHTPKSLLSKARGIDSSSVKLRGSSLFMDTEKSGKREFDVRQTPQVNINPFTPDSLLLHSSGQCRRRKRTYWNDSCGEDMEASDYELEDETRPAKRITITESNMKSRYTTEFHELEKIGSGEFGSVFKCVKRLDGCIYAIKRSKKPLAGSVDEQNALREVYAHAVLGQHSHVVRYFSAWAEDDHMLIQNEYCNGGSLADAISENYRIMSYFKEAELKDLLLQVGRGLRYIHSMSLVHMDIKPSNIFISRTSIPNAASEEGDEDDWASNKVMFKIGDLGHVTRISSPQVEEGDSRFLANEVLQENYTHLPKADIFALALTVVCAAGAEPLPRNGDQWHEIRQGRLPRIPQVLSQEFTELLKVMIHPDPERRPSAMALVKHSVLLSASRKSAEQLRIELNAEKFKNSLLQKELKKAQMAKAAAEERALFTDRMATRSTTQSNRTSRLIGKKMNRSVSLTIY

The first test concerns the target GST-tagged-Wee1 kinase (Homo sapiens, UniProt P30291). The test can be described thus: Wee1 time-resolved fluorescence equilibrium binding assay (displacement of Oregon Green-labeled ATP-competitive kinase probe).
Settings: not given
The procedure:
Wee1 kinase was assayed using a time-resolved fluorescence equilibrium binding assay monitoring displacement of a rapidly reversible Oregon Green-labeled ATP-competitive kinase probe (N-(2-(2-(2-(4-(4-(5-chloro-4-(2-(1-hydroxycyclobutyl)thiazol-5-yl)-1H-pyrrolo[2,3-b]pyridin-2-yl)phenyl)piperazin-1-yl)ethoxy)ethoxy)ethyl)-2′,7′-difluoro-3′,6′-dihydroxy-3-oxo-3H-spiro[isobenzofuran-1,9′-xanthene]-5-carboxamide) by competitive Wee1 inhibitors.
Molecule `Cc1nn(-c2c(Cl)cccc2Cl)c(=O)c2cnc(Nc3ccc4c(c3)CN(S(C)(=O)=O)CC43CC3)nc12` [Example 427, 6-(2,6-dichlorophenyl)-8-methyl-2-{[2′-(methylsulfonyl)-2′,3′-dihydro-1′H-spiro[cyclopropane-1,4′-isoquinolin]-7′-yl]amino}pyrimido[4,5-d]pyridazin-5(6H)-one] yielded a Ki of 0.91 nM. Same read-out and setting: then `CN1CCN(c2ccc(Nc3ncc4c(=O)n(-c5ccccc5)nc(-c5cccc(Br)c5)c4n3)cc2)CC1` [Example 67, 8-(3-bromophenyl)-2-{[4-(4-methylpiperazin-1-yl)phenyl]amino}-6-phenylpyrimido[4,5-d]pyridazin-5(6H)-one], with 14 nM; and `Cn1ccnc1-c1nn(-c2c(Cl)cccc2Cl)c(=O)c2cnc(Nc3ccc(N4CCNCC4)cc3)nc12` [Example 355, 6-(2,6-dichlorophenyl)-8-(1-methyl-1H-imidazol-2-yl)-2-{[4-(piperazin-1-yl)phenyl]amino}pyrimido[4,5-d]pyridazin-5(6H)-one], with 2.4 nM; and `CC(C)N1CCN(c2ccc(Nc3ncc4c(=O)n(-c5ccccc5Cl)nc(-c5ccccc5)c4n3)cc2)CC1` [Example 131, 6-(2-chlorophenyl)-2-{[4-(4-isopropylpiperazin-1-yl)phenyl]amino}-8-phenylpyrimido[4,5-d]pyridazin-5(6H)-one], with 0.5 nM. The same measure, in the same setting: then `C=CCn1nc(-c2ccco2)c2nc(Nc3ccc(N4CCCN(C(C)C)CC4)c(C)c3)ncc2c1=O` [Example 228, 8-(furan-2-yl)-2-({3-methyl-4-[4-(propan-2-yl)-1,4-diazepan-1-yl]phenyl}amino)-6-(prop-2-en-1-yl)pyrimido[4,5-d]pyridazin-5(6H)-one], with 3 nM. On the same count and under the same terms, then `CN(C)CCn1cc(-c2nn(-c3c(Cl)cccc3Cl)c(=O)c3cnc(Nc4ccc(N5CCN(C)CC5)cc4)nc23)cn1` [Example 212, 6-(2,6-dichlorophenyl)-8-{1-[2-(dimethylamino)ethyl]-1H-pyrazol-4-yl}-2-{[4-(4-methylpiperazin-1-yl)phenyl]amino}pyrimido[4,5-d]pyridazin-5(6H)-one], with 0.6 nM; and `CN1Cc2cc(Nc3ncc4c(=O)n(C5CCNCC5)nc(-c5ccccn5)c4n3)ccc2C(C)(C)C1` [Example 304, 6-(piperidin-4-yl)-8-(pyridin-2-yl)-2-[(2,4,4-trimethyl-1,2,3,4-tetrahydroisoquinolin-7-yl)amino]pyrimido[4,5-d]pyridazin-5(6H)-one], with 610 nM. The molecule `O=c1c2cnc(Nc3ccc4c(c3)CNCC4)nc2c(-c2cnccn2)nn1-c1c(Cl)cccc1Cl` [Example 251, 6-(2,6-dichlorophenyl)-8-(pyrazin-2-yl)-2-(1,2,3,4-tetrahydroisoquinolin-7-ylamino)pyrimido[4,5-d]pyridazin-5(6H)-one] had a Ki of 0.2 nM.

Molecule `CN1CCN(c2ccc(Nc3ncc4c(=O)n(-c5c(Cl)cccc5Cl)nc(-c5cnn(CCN6CCCCC6)c5)c4n3)cc2)CC1` [Example 213, 6-(2,6-dichlorophenyl)-2-{[4-(4-methylpiperazin-1-yl)phenyl]amino}-8-{1-[2-(piperidin-1-yl)ethyl]-1H-pyrazol-4-yl}pyrimido[4,5-d]pyridazin-5(6H)-one] yielded an inhibitory constant (Ki) of 0.6 nM. Still for that read-out and setting: the value for `CN1CCN(c2ccc(Nc3ncc4c(=O)n(-c5c(Cl)cccc5Cl)nc(-c5ccco5)c4n3)cc2)CC1` [Example 69, 6-(2,6-dichlorophenyl)-8-(2-furyl)-2-{[4-(4-methylpiperazin-1-yl)phenyl]amino}pyrimido[4,5-d]pyridazin-5(6H)-one] was 0.06 nM; that for `C=CCn1nc(C2CCCC2)c2nc(Nc3ccc(N4CCN(C)CC4)cc3)ncc2c1=O` [Example 15, 6-allyl-8-cyclopentyl-2-{[4-(4-methylpiperazin-1-yl)phenyl]amino}pyrimido[4,5-d]pyridazin-5(6H)-one] was 250 nM; that for `O=c1c2cnc(Nc3ccc(C4CCCNC4)cc3)nc2c(C(F)F)nn1-c1c(Cl)cccc1Cl` (stereo not shown) [Example 479, 6-(2,6-dichlorophenyl)-8-(difluoromethyl)-2-{[4-(piperidin-3-yl)phenyl]amino}pyrimido[4,5-d]pyridazin-5(6H)-one] was 0.29 nM. Still for that read-out and setting: the value for `CN1CCN(c2ccc(Nc3ncc4c(=O)n(-c5c(Cl)cncc5Cl)nc(-c5cncs5)c4n3)cc2)CC1` [Example 360, 6-(3,5-dichloropyridin-4-yl)-2-{[4-(4-methylpiperazin-1-yl)phenyl]amino}-8-(1,3-thiazol-5-yl)pyrimido[4,5-d]pyridazin-5(6H)-one] was 2.4 nM; that for `O=c1c2cnc(Nc3ccc(N4CCNCC4)cc3)nc2c(C2CCC2)nn1-c1c(Cl)cccc1Cl` [Example 279, 8-cyclobutyl-6-(2,6-dichlorophenyl)-2-{[4-(piperazin-1-yl)phenyl]amino}pyrimido[4,5-d]pyridazin-5(6H)-one] was 1.2 nM; that for `C=CCn1nc(-c2cccs2)c2nc(Nc3ccc4c(c3)CN(C)CC4)ncc2c1=O` [Example 162, 6-allyl-2-[(2-methyl-1,2,3,4-tetrahydroisoquinolin-7-yl)amino]-8-(2-thienyl)pyrimido[4,5-d]pyridazin-5(6H)-one] was 4 nM. The same measure, in the same setting: then `Cc1cccc(Cl)c1-n1nc(C)c2nc(Nc3ccc(N4CCN(CCCN(C)C)CC4)cc3)ncc2c1=O` [Example 500, 6-(2-chloro-6-methylphenyl)-2-[(4-{4-[3-(dimethylamino)propyl]piperazin-1-yl}phenyl)amino]-8-methylpyrimido[4,5-d]pyridazin-5(6H)-one], with 0.51 nM. `O=c1c2cnc(Nc3ccc(N4CCNCC4)cc3)nc2c(-c2cccc(F)n2)nn1-c1c(Cl)cccc1Cl` [Example 226, 6-(2,6-dichlorophenyl)-8-(6-fluoropyridin-2-yl)-2-{[4-(piperazin-1-yl)phenyl]amino}pyrimido[4,5-d]pyridazin-5(6H)-one] displayed a Ki of under 1 nM.

For the molecule `CN1CCc2ccc(Nc3ncc4c(=O)n(-c5ccccc5Cl)nc(-c5ccccc5)c4n3)cc2C1` [Example 245, 6-(2-chlorophenyl)-2-[(2-methyl-1,2,3,4-tetrahydroisoquinolin-7-yl)amino]-8-phenylpyrimido[4,5-d]pyridazin-5(6H)-one], affinity was put at a Ki of 0.7 nM. Still for that read-out and setting: the value for `CC(=O)N1CCc2cc(Nc3ncc4c(=O)n(-c5c(Cl)cccc5Cl)nc(C)c4n3)ccc2C1` [Example 449, 2-[(2-acetyl-1,2,3,4-tetrahydroisoquinolin-6-yl)amino]-6-(2,6-dichlorophenyl)-8-methylpyrimido[4,5-d]pyridazin-5(6H)-one] was 0.55 nM; that for `CCc1nn(-c2c(Cl)cccc2Cl)c(=O)c2cnc(Nc3ccc4c(c3)CCNC4(C)C)nc12` [Example 466, 6-(2,6-dichlorophenyl)-2-[(1,1-dimethyl-1,2,3,4-tetrahydroisoquinolin-6-yl)amino]-8-ethylpyrimido[4,5-d]pyridazin-5(6H)-one] was 0.34 nM. Still for that read-out and setting: the value for `Cc1ccccc1-n1nc(-c2ccco2)c2nc(Nc3ccc(N4CCN(C(C)C)CC4)cc3)ncc2c1=O` [Example 107, 8-(2-furyl)-2-{[4-(4-isopropylpiperazin-1-yl)phenyl]amino}-6-(2-methylphenyl)pyrimido[4,5-d]pyridazin-5(6H)-one] was 1 nM.

The test is the same for the next values; noted with them: read-out: Wee-1 inhibition Ki.
Consider “6-(2,6-dichlorophenyl)-8-(3-furyl)-2-{[4-(4-methylpiperazin-1-yl)phenyl]amino}pyrimido[4,5-d]pyridazin-5(6H)-one [Example 95]”, for which the inhibition constant (Ki) was 0.1 nM.
